Source: US20230338347A1, “New Use of Inhibitors of the Notch Signalling Pathway” (Cellestia Biotech AG, priority 2020, published 2023)

Key:
Format in all cases: in vivo, human
[1] = tested on: Notch-activated relapsed and treatment refractory T-ALL; assay: Compassionate use in a NOTCH positive relapsed refractory T-ALL patient: clinical response; settings: free base once daily 300 to 400 to 500 mg
Procedure: In a compassionate use program, a patient with Notch-activated relapsed and treatment refractory T-ALL was treated with 6-(4-Tert-Butylphenoxy)Pyridin-3-Amine (free base) once daily starting with 300 mg, increased to 400 mg, then 500 mg in addition to their ongoing anti-cancer treatment. Dose escalation was done every 3 days to reach the target dose 500 mg.

NOTCH target genes = assay: NOTCH target gene expression in hair follicles of Phase 1 patients (Nanostring); settings: several NOTCH target genes, starting at Cycle 2 day 1
Excerpt: Hair follicles were obtained at pre-defined time points to measure changes in NOTCH target genes expression by 6-(4-Tert-Butylphenoxy)Pyridin-3-Amine treatment. NOTCH target gene down-regulation in hair follicles has been reported to be a robust and indicative biomarker that correlates with both clinical efficacy and the incidence of DLTs (Tanis K Q, et al. Clin Pharmacol Ther 2016; 99(4):370-80; Cook N, et al. BJC 2018; 118(6):793-801).
Between 5 to 10 hairs were plucked to extract the complete and undamaged hairbulb (full hair follicle), and processed as described in Camidge D R, et al. Br J Cancer 2005; 92:1837-41 and Bradley B J, et al. Mol EcolNotes 2005; 5:961-4. RNA concentration was measured by Qubit (RNAHighSensitivity), and RNA integrity was evaluated on a RNA 6000 Pico chip. RNA samples were tested for gene expression profiling on a Nanostring platform.
Table 1: NOTCH target down regulation in hair follicles and blood cells from Phase 1 patients. Target gene down regulation (CCND3, cyclin-D3; HES1, Hairy and enhance of split-1; HES4, Hairy and enhance of split-4; HESS, Hairy and enhance of split-5; HEY1, hes related family bHLH transcription factor with YRPW motif1; HEY2; hes related family bHLH transcription factor with YRPW motif 2; HEYL, hes-related family bHLH transcription factor with YRPW motif-like; IL7R-α, Interleukin-7 receptor subunit alpha; NOTCH1; NOTCH2; NRARP (NOTCH Regulated Ankyrin Repeat Protein): […]

[2] = Phase I/IIA study: pharmacokinetics after oral administration
Excerpt: This […] study is an ongoing first-in-human, open-label study investigating the safety, tolerability, pharmacokinetics (PK), pharmacodynamics (PD) and preliminary efficacy of the pan-NOTCH inhibitor 6-(4-Tert-Butylphenoxy)Pyridin-3-Amine in adult patients with locally advanced or metastatic solid tumours or hematologic malignancies.
The study is designed as an open label, non-randomised, uncontrolled […] dose escalation study with expansion cohorts of 6-(4-Tert-Butylphenoxy)Pyridin-3-Amine administered orally on a once-daily schedule, based on a 28-day treatment cycle. The dosing will be 15, 30, 60, 120, 170, 250, 400, or 600 mg of the 6-(4-Tert-Butylphenoxy)Pyridin-3-Amine monohydrochloride salt or higher per day or alternatively 20, 40, 60, 120, 170, 250, 400, or 600 mg of the 6-(4-Tert-Butylphenoxy)Pyridin-3-Amine monohydrochloride salt or higher per day. Dosing of 15, 30, 60, 120, 170, 250, 400, or 600 mg of the 6-(4-Tert-Butylphenoxy)Pyridin-3-Amine monohydrochloride salt corresponds to dosing of 13, 26, 52, 104, 148, 217, 348, or 522 mg of 6-(4-Tert-Butylphenoxy)Pyridin-3-Amine (free base). Dosing of 20, 40, 60, 120, 170, 250, 400, or 600 mg of the 6-(4-Tert-Butylphenoxy)Pyridin-3-Amine monohydrochloride salt corresponds to dosing of 17, 35, 52, 104, 148, 217, 348, or 522 mg of 6-(4-Tert-Butylphenoxy)Pyridin-3-Amine (free base). For this study, 6-(4-Tert-Butylphenoxy)Pyridin-3-Amine monohydrochloride salt was formulated into a capsule having a drug load of 5, 10, 20, 50 and 100 mg, respectively intended to be administered orally. • Patients will meet the following criteria:
6-(4-Tert-Butylphenoxy)Pyridin-3-Amine is rapidly absorbed after oral administration and reaches Cmax within 1 to 2 hours of dosing. […] The elimination half-life is approximately 20 hours and 6-(4-Tert-Butylphenoxy)Pyridin-3-Amine accumulates about 2-fold with repeated daily administration.

[3] = tested on: adenoid cystic carcinoma (ACC); assay: Phase I/IIA study: preliminary clinical efficacy (best response, disease control rate); settings: for Disease control rate (CR, PR or SD / patients treated): 19 ACC patients
Excerpt: Each lane represents one patient and the length of the lane represents the duration of treatment. […] Disease control rate of 19 patients with adenoid cystic carcinoma at 8 weeks and 20 weeks was 79% and 58%, respectively (calculated as number of patients with complete or partial response, or stable disease divided by the number of patients with that indication treated). Abbreviations: SD, stable disease; PD, progressive disease; NA, not applicable).
The primary outcome measures for this study are: • Part A (Escalation): Dose limiting toxicities (DLT) • Part B (Expansion): Best overall response according to the respective tumour assessment criteria for the different cancer indications.
The Notch status of the other patients is under investigation. Disease control rate (DCR) of 19 ACC patients at 8 weeks and 20 weeks was 79% and 58%, respectively (DCR defined as number of patients with CR, PR, or SD divided by the number of patients treated).

## CC(C)(C)c1ccc(Oc2ccc(N)cn2)cc1 [6-(4-Tert-Butylphenoxy)Pyridin-3-Amine]
[1]
  time to complete remission after starting dosing: ≤ 1 week
[1]; added to ongoing anti-cancer treatment
  clinical response: complete remission
NOTCH target genes
  average NOTCH target gene downregulation compared to baseline (inhibition): higher than 90%
[2]; daily dosing
  time to steady state concentrations: within one week
[2]; human, plasma, after oral administration, read-out: time to reach Cmax
  Tmax: 1 to 2 h
[2]; human, plasma, oral, read-out: elimination half-life (converted)
  half-life: ~20 h
[2]; oral, daily
  accumulation with repeated daily administration: about 2 fold
[2]; oral, dose range tested
  plasma exposure versus dose: increases with increasing doses
  saturation of absorption: no signs of saturated absorption
[3]; 4 of them with Notch activating mutation
  number of ACC patients with radiologically confirmed stable disease: Ten
[3]; at 8 weeks
  Disease control rate (CR, PR or SD / patients treated): 79%
[3]; at 20 weeks
  Disease control rate (CR, PR or SD / patients treated): 58%
[3]; at doses showing target engagement
  best response: durable stable disease
